The target of the experiment is APJ receptor (Homo sapiens (Human), UniProt P35414). As to the kind of experiment: [35S]GTPγS binding assay on membranes from CHO cells stably expressing human APJ receptor. Format: biochemical. As to conditions: membranes of CHO cells stably expressing human APJ receptor, means of several independent experiments, read-out: Activity hAPJ SPA EC50 IP. The gist of the method:
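Membranes from CHO cells stably expressing human APJ were incubated with 0.2 nM [35S]GTPγS and ligands for 90 min at RT in 20 mM HEPES pH 7.5, 5 mM MgCl2, 200 mM NaCl, 3 μM GDP, 0.1% BSA with WGA PS beads. Nonspecific binding was set with 100 μM GTPγS. EC50 came from non-linear regression.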
Background: Binding of GTPγS marks nucleotide exchange on a G protein.

The values that follow come from patent US10736883B2, “Triazole furan compounds as agonists of the APJ receptor” (AMGEN INC., priority 2016, dated 2020).

The EC50 is the concentration giving half of the maximal effect.

Sequence of APJ receptor (P35414 whole entry): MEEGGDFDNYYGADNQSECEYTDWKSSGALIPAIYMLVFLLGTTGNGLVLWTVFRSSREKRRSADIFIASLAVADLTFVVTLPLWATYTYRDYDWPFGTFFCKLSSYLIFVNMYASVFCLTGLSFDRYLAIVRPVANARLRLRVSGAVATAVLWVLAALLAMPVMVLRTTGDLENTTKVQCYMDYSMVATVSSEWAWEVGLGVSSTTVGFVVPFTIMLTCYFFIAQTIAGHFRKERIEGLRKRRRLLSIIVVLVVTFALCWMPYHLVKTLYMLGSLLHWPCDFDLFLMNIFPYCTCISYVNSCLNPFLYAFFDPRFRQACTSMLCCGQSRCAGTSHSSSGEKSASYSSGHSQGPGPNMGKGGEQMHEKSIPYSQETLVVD

Regarding `COc1cccc(OC)c1-n1c(NS(=O)(=O)CCc2ncc(Cl)cc2C2=CCN(C)CC2)nnc1-c1ccco1` [Example 214.0, 2-(5-Chloro-1′-methyl-1′,2′,3′,6′-tetrahydro-3,4′-bipyridin-2-yl)-N-(4-(2,6-dimethoxyphenyl)-5-(2-furanyl)-4H-1,2,4-triazol-3-yl)ethanesulfonamide], the EC50 was 0.21 nM.
In the case of `COc1ncnc(OC)c1-n1c(NS(=O)(=O)[C@@H](C)[C@H](C)c2ccc(Cl)cn2)nnc1-c1ccc(C)o1` [Example 400.0, (2S,3R)-3-(5-chloro-2-pyridinyl)-N-(4-(4,6-dimethoxy-5-pyrimidinyl)-5-(5-methyl-2-furanyl)-4H-1,2,4-triazol-3-yl)-2-butanesulfonamide] it was 0.1 nM; in that of `CCO[C@H](c1ncc(C)cn1)[C@H](C)S(=O)(=O)Nc1nnc(-c2ccc(C)o2)n1-c1c(OC)cccc1OC` (single isomer, unassigned) [Example 118.0], 0.084 nM; in that of `COc1cccc(OC)c1-n1c(NS(=O)(=O)[C@@H](C)CN2C(=O)CCC[C@]2(C)C#N)nnc1-c1ccco1` (single isomer, unassigned) [Example 341.0], 81 nM.
With `COc1cccc(OC)c1-n1c(NS(=O)(=O)[C@@H](C)[C@@H](O)c2ccc(C#N)cn2)nnc1-c1ccc(C)o1` (single isomer, unassigned) [Example 10.0, (1S,2S)-1-(5-cyano-2-pyridinyl)-N-(4-(2,6-dimethoxyphenyl)-5-(5-methyl-2-furanyl)-4H-1,2,4-triazol-3-yl)-1-hydroxy-2-propanesulfonamide or (1R,2R)-1-(5-cyano-2-pyridinyl)-N-(4-(2,6-dimethoxyphenyl)-5-(5-methyl-2-furanyl)-4H-1,2,4-triazol-3-yl)-1-hydroxy-2-propanesulfonamide] the figure was 0.11 nM; with `COc1cccc(OC)c1-n1c(NS(=O)(=O)[C@@H](C)Cc2ncc(Cl)cc2NC(C)=O)nnc1-c1ccco1` (racemic) [Example 13.0, N-(5-chloro-2-((2S)-2-((4-(2,6-dimethoxyphenyl)-5-(2-furanyl)-4H-1,2,4-triazol-3-yl)sulfamoyl)propyl)-3-pyridinyl)acetamide and N-(5-chloro-2-((2R)-2-((4-(2,6-dimethoxyphenyl)-5-(2-furanyl)-4H-1,2,4-triazol-3-yl)sulfamoyl)propyl)-3-pyridinyl)acetamide], 0.19 nM.
Take `CCc1ccc(-c2nnc(NS(=O)(=O)CCc3ncc(F)cn3)n2-c2c(OC)cccc2OC)o1` [Example 98.0, N-(4-(2,6-dimethoxyphenyl)-5-(5-ethyl-2-furanyl)-4H-1,2,4-triazol-3-yl)-2-(5-fluoro-2-pyrimidinyl)ethanesulfonamide]: the EC50 came to 0.45 nM.
Consider `COc1cccc(OC)c1-n1c(NS(=O)(=O)[C@H]2C[C@@H](O)CN(C(=O)N(C)C)C2)nnc1-c1ccc(C)o1` (single isomer, unassigned) [Example 337.0, (3S,5R)-3-(N-(4-(2,6-Dimethoxyphenyl)-5-(5-methylfuran-2-yl)-4H-1,2,4-triazol-3-yl)sulfamoyl)-5-hydroxy-N,N-dimethylpiperidine-1-carboxamide or (3R,5S)-3-(N-(4-(2,6-dimethoxyphenyl)-5-(5-methylfuran-2-yl)-4H-1,2,4-triazol-3-yl)sulfamoyl)-5-hydroxy-N,N-dimethylpiperidine-1-carboxamide], for which the half-maximal effective concentration (EC50) was found to be 1.3 nM.
In the case of `COc1ncnc(OC)c1-n1c(NS(=O)(=O)[C@@H](C)[C@H](OC)c2ncc(C)cn2)nnc1-c1ccc(C)o1` [Example 3.0, (1R,2S)—N-(4-(4,6-dimethoxypyrimidin-5-yl)-5-(5-methylfuran-2-yl)-4H-1,2,4-triazol-3-yl)-1-methoxy-1-(5-methylpyrimidin-2-yl)propane-2-sulfonamide], the EC50 stood at 0.31 nM.
In the case of `Cc1ccc(-c2nnc(NS(=O)(=O)[C@@H](C)Cc3ncc(F)cn3)n2C2CC2)o1` (racemic) [Example 319.0, (2R)—N-(4-Cyclopropyl-5-(5-methyl-2-furanyl)-4H-1,2,4-triazol-3-yl)-1-(5-fluoro-2-pyrimidinyl)-2-propanesulfonamide and (2S)—N-(4-cyclopropyl-5-(5-methyl-2-furanyl)-4H-1,2,4-triazol-3-yl)-1-(5-fluoro-2-pyrimidinyl)-2-propanesulfonamide] it was 610 nM.
As for `COc1cccc(OC)c1-n1c(NS(=O)(=O)[C@@H]2COCC[C@@H]2O)nnc1-c1ccc(C)o1` (single isomer, unassigned) [Example 403.0], the EC50 was 57 nM.
In the case of `COc1cccc(OC)c1-n1c(NS(=O)(=O)CCc2ncc(Cl)cc2C2=CCNCC2)nnc1-c1ccco1` [Example 220.0, 2-(5-Chloro-1′,2′,3′,6′-tetrahydro-3,4′-bipyridin-2-yl)-N-(4-(2,6-dimethoxyphenyl)-5-(2-furanyl)-4H-1,2,4-triazol-3-yl)ethanesulfonamide] it was 0.27 nM; in that of `COc1cccc(OC)c1-n1c(NS(=O)(=O)[C@@H]2COCC[C@@H]2O)nnc1-c1ccc(C)o1` (single isomer, unassigned) [Example 404.0], 36 nM.
With `COc1cccc(OC)c1-n1c(NS(=O)(=O)CCc2ncc(Cl)cc2N2CCC2=O)nnc1-c1ccco1` [Example 27.0, 2-(5-chloro-3-(2-oxo-1-azetidinyl)-2-pyridinyl)-N-(4-(2,6-dimethoxyphenyl)-5-(2-furanyl)-4H-1,2,4-triazol-3-yl)ethanesulfonamide] the figure was 0.46 nM.
Consider `COc1cccc(OC)c1-n1c(NS(=O)(=O)[C@H]2CCCN(S(=O)(=O)C(C)C)C2)nnc1-c1ccco1` (single isomer, unassigned) [Example 339.0, (S)—N-(4-(2,6-Dimethoxyphenyl)-5-(furan-2-yl)-4H-1,2,4-triazol-3-yl)-1-(isopropylsulfonyl)piperidine-3-sulfonamide or (R)—N-(4-(2,6-dimethoxyphenyl)-5-(furan-2-yl)-4H-1,2,4-triazol-3-yl)-1-(isopropylsulfonyl)piperidine-3-sulfonamide], for which the EC50 amounted to 62 nM.
With `CCOC(=O)[C@@H]1C[C@@H](S(=O)(=O)Nc2nnc(-c3ccco3)n2-c2c(OC)cccc2OC)CN(c2ncc(F)cn2)C1` [Example 158.0, Ethyl (3R,5R)-5-((4-(2,6-dimethoxyphenyl)-5-(2-furanyl)-4H-1,2,4-triazol-3-yl)sulfamoyl)-1-(5-fluoro-2-pyrimidinyl)-3-piperidinecarboxylate or ethyl (3S,5S)-5-((4-(2,6-dimethoxyphenyl)-5-(2-furanyl)-4H-1,2,4-triazol-3-yl)sulfamoyl)-1-(5-fluoro-2-pyrimidinyl)-3-piperidinecarboxylate] the figure was 0.4 nM; with `COc1cccc(OC)c1-n1c(NS(=O)(=O)[C@H](C)Cc2ncc(F)cc2NC(C)=O)nnc1-c1ccco1` (racemic) [Example 28.0, N-(2-((2R)-2-((4-(2,6-dimethoxyphenyl)-5-(2-furanyl)-4H-1,2,4-triazol-3-yl)sulfamoyl)propyl)-5-fluoro-3-pyridinyl)acetamide and N-(2-((2S)-2-((4-(2,6-dimethoxyphenyl)-5-(2-furanyl)-4H-1,2,4-triazol-3-yl)sulfamoyl)propyl)-5-fluoro-3-pyridinyl)acetamide], 0.48 nM; with `COc1cccc(OC)c1-n1c(NS(=O)(=O)CCc2ccc(F)cc2C#N)nnc1-c1ccc(C(F)(F)F)o1` [Example 131.0, 2-(2-Cyano-4-fluorophenyl)-N-(4-(2,6-dimethoxyphenyl)-5-(5-(trifluoromethyl)furan-2-yl)-4H-1,2,4-triazol-3-yl)ethanesulfonamide], 3.9 nM.
With `COc1cccc(OC)c1-n1c(NS(=O)(=O)[C@@H](C)Cc2ncc(F)c3[nH]cnc23)nnc1-c1ccco1` (single isomer, unassigned) [Example 5.0, (2S)—N-(4-(2,6-dimethoxyphenyl)-5-(2-furanyl)-4H-1,2,4-triazol-3-yl)-1-(7-fluoro-1H-imidazo[4,5-c]pyridin-4-yl)-2-propanesulfonamide or (2R)—N-(4-(2,6-dimethoxyphenyl)-5-(2-furanyl)-4H-1,2,4-triazol-3-yl)-1-(7-fluoro-1H-imidazo[4,5-c]pyridin-4-yl)-2-propanesulfonamide] the figure was 0.95 nM; with `COc1cccc(OC)c1-n1c(NS(=O)(=O)[C@H](C)[C@H](OC)c2cn3ccccc3n2)nnc1-c1ccc(C)o1` (single isomer, unassigned) [Example 268.0, (1S,2S)—N-(4-(2,6-Dimethoxyphenyl)-5-(5-methyl-2-furanyl)-4H-1,2,4-triazol-3-yl)-1-imidazo[1,2-a]pyridin-2-yl-1-methoxy-2-propanesulfonamide or (1R,2R)—N-(4-(2,6-dimethoxyphenyl)-5-(5-methyl-2-furanyl)-4H-1,2,4-triazol-3-yl)-1-imidazo[1,2-a]pyridin-2-yl-1-methoxy-2-propanesulfonamide], 0.47 nM; with `COc1cccc(OC)c1-n1c(NS(=O)(=O)[C@H](C)[C@@H](O)c2ncn3ccccc23)nnc1-c1ccc(C)o1` (single isomer, unassigned) [Example 270.0, (1R,2S)—N-(4-(2,6-Dimethoxyphenyl)-5-(5-methyl-2-furanyl)-4H-1,2,4-triazol-3-yl)-1-hydroxy-1-imidazo[1,5-a]pyridin-1-yl-2-propanesulfonamide or (1S,2R)—N-(4-(2,6-dimethoxyphenyl)-5-(5-methyl-2-furanyl)-4H-1,2,4-triazol-3-yl)-1-hydroxy-1-imidazo[1,5-a]pyridin-1-yl-2-propanesulfonamide], 0.56 nM.
For `COc1cccc(OC)c1-n1c(NS(=O)(=O)[C@@H](C)[C@H](O)c2ccc(C#N)cc2F)nnc1-c1ccc(C)o1` [Example 75.0], the EC50 is 0.55 nM.
